Values of other authors as cited in patent US12115220B2, “Oral mucosal carrier and protectant” (Inspired Material Solutions, LLC, priority 2018, dated 2024).
Read-outs that look alike come from different tables or passages of the source.

[1] = 10 mg CBD+10 mg THC in an oral capsule
[2] = after buccal Sativex (10 mg THC+10 mg CBD)

Compound | mean (SD) peak plasma concentration [1] | plasma maximum concentrations (after a 20 mg dose of oral THC) | mean (SD) peak plasma concentration [2] | Time to maximum concentration (Tmax) (after buccal administration) | Time to maximum concentration (Tmax) (after oral administration) | bioavailability (inhaled) | time of peak concentrations postdose (oral absorption)
CCCCCc1cc(O)c2c(c1)OC(C)(C)[C@@H]1CCC(C)=C[C@@H]21 [THC, delta-9-tetrahydrocannabinol] | 6.4 (3.1) μg/L | 4.4 to 11.0 µg/L | 6.1 (5.4) μg/L | 2.4 (1.1) h | 1.0 (0.6) h | up to 27% | 1 to 5 h
C=C(C)[C@@H]1CCC(C)=C[C@H]1c1c(O)cc(CCCCC)cc1O [CBD, cannabidiol] | 2.5 (2.2) μg/L |  | 3.0 (3.1) μg/L | 2.8 (1.3) h | 1.3 (0.8) h |  | 
